# Experimental data reported in patent US20210142173A1, “NETWORK-BASED DEEP LEARNING TECHNOLOGY FOR TARGET IDENTIFICATION AND DRUG REPURPOSING” (THE CLEVELAND CLINIC FOUNDATION, priority 2019, published 2021).
# Values joined by “and” are separate entries in the source; they are usually repeats but may differ in a detail not shown here. Equal entries are not always repeated. Where two headings read alike, the source gives them in different places.
# Legend:
# human RORγt = target: T1, human RORγt (Homo sapiens, UniProt P51449); experiment: Cell-based GAL4-RORγt luciferase reporter assay in HEK293T cells; details: for inhibition at 10 µM: HEK-293T
# T1 construct: expressed in transfected cells; host or cells: HEK293T
# T1 sequence (P51449 269-508 limits assumed): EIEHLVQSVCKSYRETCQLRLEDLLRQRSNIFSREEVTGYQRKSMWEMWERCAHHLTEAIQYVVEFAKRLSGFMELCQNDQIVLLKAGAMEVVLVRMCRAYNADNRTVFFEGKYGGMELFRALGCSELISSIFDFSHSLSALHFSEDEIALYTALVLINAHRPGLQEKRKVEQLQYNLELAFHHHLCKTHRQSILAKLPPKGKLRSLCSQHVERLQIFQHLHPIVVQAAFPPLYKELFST
# Procedure: FIG. 7A is a graph showing the inhibitory rate of various drugs as predicted by an example deep learning network system. […] In total, 18 purchasable drugs for RORγt were tested using a cell-based luciferase reporter assay. In this assay, GAL4-RORγt, with fused human RORγt LBD and GAL4 DNA binding domain are co-transfected into HEK293T cells with a luciferase reporter gene harboring the GAL4 response element33.
# firefly luciferase = firefly luciferase (Photinus pyralis, UniProt P08659); experiment: Control firefly luciferase activity experiment; type: cell-based; details: control experiment for promiscuous effects on luciferase
# Sequence of firefly luciferase (P08659 whole entry): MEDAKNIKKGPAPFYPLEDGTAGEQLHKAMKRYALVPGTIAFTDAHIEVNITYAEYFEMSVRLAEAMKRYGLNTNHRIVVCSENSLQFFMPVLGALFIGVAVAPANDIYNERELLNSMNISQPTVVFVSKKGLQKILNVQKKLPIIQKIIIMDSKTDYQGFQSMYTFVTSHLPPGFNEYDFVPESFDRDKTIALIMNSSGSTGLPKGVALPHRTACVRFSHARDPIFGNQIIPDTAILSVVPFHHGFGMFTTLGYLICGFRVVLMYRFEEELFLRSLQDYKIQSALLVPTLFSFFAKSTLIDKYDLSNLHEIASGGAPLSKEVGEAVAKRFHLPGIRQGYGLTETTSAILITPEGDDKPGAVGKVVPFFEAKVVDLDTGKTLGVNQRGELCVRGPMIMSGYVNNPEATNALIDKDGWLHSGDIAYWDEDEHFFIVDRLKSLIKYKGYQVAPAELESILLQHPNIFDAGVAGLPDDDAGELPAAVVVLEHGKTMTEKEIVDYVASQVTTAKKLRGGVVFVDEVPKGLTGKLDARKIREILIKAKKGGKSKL
# Excerpt: (§1) FIG. 7B is a graph showing the inhibitory rate as a function of topotecan concentration. […] FIG. 7C is a graph showing the effect of topotecan on fluorescence intensity. […] FIG. 7D is a graph showing the effect of topotecan on cell viability.
# HEK293T cells = experiment: HEK293T cell viability; type: cell-based, human; details: same concentration range as in the reporter assay
# Excerpt: as §1
# RORγt-LBD [1] = target: T2, RORγt-LBD (Homo sapiens, UniProt P51449); experiment: HTRF coactivator (SRC-1 peptide) recruitment assay; type: biochemical; details: read-out: IC50 (disruption of RORγt-LBD interaction with SRC-1 cofactor peptide)
# T2 sequence (P51449 269-508 limits assumed): T1 sequence (P51449 269-508 limits assumed)
# Excerpt: Nuclear receptors execute their versatile transcriptional functions by recruiting positive and negative regulatory proteins, known as coactivators or corepressors, respectively. Agonists promote interactions between nuclear receptors and coactivators, while antagonists either inhibit coactivator binding or facilitate corepressor recruitment. The functional change of the binding of topotecan on RORγt is investigated by utilizing a HTRF assay to evaluate ligand-induced coactivator recruitment to RORγt.
# FIG. 7E is another graph showing the inhibitory rate of topotecan as a function of concentration as predicted by an example deep learning network system.
# RORγt-LBD [2] = target: T2, RORγt-LBD; experiment: Circular dichroism (CD) spectrum of RORγt; type: binding
# Excerpt: FIG. 7F is a graph illustrating how topotecan alters the variation of circular dichroism (CD) spectrum of RORγt. CD is a powerful method for probing protein and ligand interactions in solution. […] FIG. 7G is a graph plotting CD Signal as a function of wavelength. […] FIG. 7H is an illustration showing how topotecan interacts with multiple important residues on human RORγt. The binding mode of topotecan to human RORγt is examined using molecular docking. […] Put together, by combining information gleaned from the deep learning network model and experimental assays, topotecan is identified as a novel, direct inhibitor of human RORγt.
# RORγt-LBD [3] = target: T2, RORγt-LBD; experiment: HPLC direct interaction with RORγt-LBD; type: binding
# [4] = target: retinoid X receptor α LBD (RXRα-LBD) (Homo sapiens, UniProt P19793); experiment: HPLC direct interaction with RXRα-LBD; type: binding
# Sequence of retinoid X receptor α LBD (RXRα-LBD) (P19793 227-458 limits assumed, species assumed): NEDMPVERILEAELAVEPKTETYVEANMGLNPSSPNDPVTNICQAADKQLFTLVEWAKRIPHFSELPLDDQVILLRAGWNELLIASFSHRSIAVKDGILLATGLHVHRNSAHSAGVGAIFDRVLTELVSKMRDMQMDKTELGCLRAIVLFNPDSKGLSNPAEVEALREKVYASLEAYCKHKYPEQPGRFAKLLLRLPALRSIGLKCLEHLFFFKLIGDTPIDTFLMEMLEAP
# [5] = Pharmacokinetics after intraperitoneal injection in mice; type: in vivo
# Excerpt: Where Cmax is the peak concentration, Tmax is the time between administration and reaching Cmax, and t1/2 is the elimination half-life.
# RORγt = target: T3, RORγt (Mus musculus, UniProt P51450); experiment: Target occupancy in mouse brain with tracer T0901317; type: in vivo, mice
# T3 construct: Concentration of T0901317 in mice brain samples; from tissue; host or cells: mouse brain
# T3 sequence (P51450 1-495 isoform P51450-2): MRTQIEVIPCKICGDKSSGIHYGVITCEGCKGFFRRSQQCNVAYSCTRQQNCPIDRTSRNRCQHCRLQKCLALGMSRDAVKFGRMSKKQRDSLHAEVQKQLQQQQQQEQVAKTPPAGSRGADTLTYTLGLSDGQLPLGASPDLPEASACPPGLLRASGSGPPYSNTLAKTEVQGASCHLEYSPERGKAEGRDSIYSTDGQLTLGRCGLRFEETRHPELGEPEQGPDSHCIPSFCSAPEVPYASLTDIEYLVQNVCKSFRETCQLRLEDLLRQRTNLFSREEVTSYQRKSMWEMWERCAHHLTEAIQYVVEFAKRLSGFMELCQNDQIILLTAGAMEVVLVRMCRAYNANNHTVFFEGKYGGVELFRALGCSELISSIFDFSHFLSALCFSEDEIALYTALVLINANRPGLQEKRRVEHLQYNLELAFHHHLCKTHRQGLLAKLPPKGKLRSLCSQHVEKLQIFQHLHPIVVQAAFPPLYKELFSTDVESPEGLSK
# Procedure: In the data presented in Table 2, T0901317, an orthosteric ligand of RORγt, was used as the tracer for assessing target occupancy of TPT. A Student's t-test was performed to obtain the p-value, and sterile water was used as vehicle.
# EAE mice = experiment: Experimental autoimmune encephalomyelitis (EAE) model; type: in vivo, C57BL/6 mice
# Procedure: FIG. 8A is a schedule of the application of an experimental autoimmune encephalomyelitis (EAE) model. EAE is a most frequently used experimental animal model for human multiple sclerosis. To investigate the therapeutic potential of topotecan in multiple sclerosis, EAE was induced in C57BL/6 mice by active immunization with […] in complete Freund's adjuvant (CFA) followed by pertussis toxin administration, according to the application schedule shown in FIG. 8A. Topotecan (10 mg/kg) or vehicle (sterile water, control) was administered intraperitoneally every four days during the course of EAE. Disease severity was assessed and graded using a five-point scoring system for 15 days.
# During the course of EAE, changes in body weight also reflect disease severity. FIG. 8C is a graph showing weight loss in miss after the application of topotecan during EAE.
# Multiple sclerosis is a chronic demyelinating disease accompanied by blood-brain barrier disruption. Near-infrared in vivo imaging is further utilized to evaluate the demyelination and blood-brain barrier leakage in EAE mice. A near-infrared fluorescent dye, 3, 3′-diethylthiatricarbocyanine iodide (DBT), easily enter into the brain and selectively binds to myelin fibers45. […] Cy5.5-BSA, a fluorescent BSA conjugate with bright near infrared fluorescence, penetrates the brain when the blood-brain barrier is disrupted.
# T helper 17 (Th17) cells are a highly pro-inflammatory lineage of T helper cells defined by their production of interleukin 17 (IL-17)46. RORγt is necessary and sufficient for cytokine IL-17 expression in mouse and human Th17 cells46. Given the inhibitory effects of topotecan against RORγt, it was investigated whether topotecan affects IL-17 expression in EAE mice.
# [6] = system: normal cell lines or other mice organs; experiment: Toxicity on normal cell lines or mice organs
# Excerpt: Accordingly, as predicted by the systems and methods presented herein, topotecan is a good drug candidate in possible treatment of MS.
# ADRA2A = target: T4, ADRA2A (Homo sapiens, UniProt P08913); details: published experimental data; cited from earlier work
# T4 sequence (P08913 1-465): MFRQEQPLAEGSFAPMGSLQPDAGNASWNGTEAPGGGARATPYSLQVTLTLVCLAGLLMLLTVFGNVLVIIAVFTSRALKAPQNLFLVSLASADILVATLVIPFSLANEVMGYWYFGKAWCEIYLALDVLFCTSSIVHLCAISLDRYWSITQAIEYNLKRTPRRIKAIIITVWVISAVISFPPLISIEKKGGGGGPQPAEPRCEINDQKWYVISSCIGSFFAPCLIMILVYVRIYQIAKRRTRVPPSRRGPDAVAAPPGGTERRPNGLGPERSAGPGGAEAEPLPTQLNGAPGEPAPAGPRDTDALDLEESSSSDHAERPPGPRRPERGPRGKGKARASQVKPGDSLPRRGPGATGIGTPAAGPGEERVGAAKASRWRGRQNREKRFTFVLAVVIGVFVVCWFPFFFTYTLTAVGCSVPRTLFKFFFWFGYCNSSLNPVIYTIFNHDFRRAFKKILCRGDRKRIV
# DRD2 = DRD2 (Homo sapiens, UniProt P14416); details: published experimental data; cited from earlier work
# Sequence of DRD2 (P14416 whole entry): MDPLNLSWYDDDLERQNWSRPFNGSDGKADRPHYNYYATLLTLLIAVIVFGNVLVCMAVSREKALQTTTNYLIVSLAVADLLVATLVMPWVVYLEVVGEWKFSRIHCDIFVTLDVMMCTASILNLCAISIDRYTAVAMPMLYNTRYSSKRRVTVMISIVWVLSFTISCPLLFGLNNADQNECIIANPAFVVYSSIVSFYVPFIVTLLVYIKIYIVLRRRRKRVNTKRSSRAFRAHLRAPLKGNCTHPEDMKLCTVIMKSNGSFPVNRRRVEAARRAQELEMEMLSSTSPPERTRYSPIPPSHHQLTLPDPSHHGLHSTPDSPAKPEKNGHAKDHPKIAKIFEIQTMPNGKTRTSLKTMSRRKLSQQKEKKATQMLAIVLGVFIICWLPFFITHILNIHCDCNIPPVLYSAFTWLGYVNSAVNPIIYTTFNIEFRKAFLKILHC
# [7] = mouse, ip, brain, intraperitoneal injection in mice
# [8] = mouse, ip, plasma, intraperitoneal injection in mice
# [9] = 10 mg/kg intraperitoneally every four days
# [10] = read-out: inhibitory rate, at a concentration of 10 μM, GAL4-RORγt HEK293T luciferase reporter
# [11] = at a concentration of 10 μM, GAL4-RORγt HEK293T luciferase reporter, read-out: inhibitory rate
structure (smiles),measurement,setting,value
CC[C@@]1(O)C(=O)OCc2c1cc1n(c2=O)Cc2cc3c(CN(C)C)c(O)ccc3nc2-1 [topotecan],IC50,"human RORγt; GAL4-RORγt expressing HEK293T cells, read-out: IC50 (antagonistic activity)",0.43 ± 0.02 µM
same,inhibitory rate,"human RORγt; at a concentration of 10 μM, GAL4-RORγt HEK293T luciferase reporter, 10 µM",71.0%
same,suppression of control firefly luciferase activity,firefly luciferase,no suppression is observed
same,effect on HEK293T cell viability,HEK293T cells,minor effect
same,IC50,RORγt-LBD [1],6.65 ± 0.02 µM
same,change of CD spectrum of RORγt (direct binding),RORγt-LBD [2],alters the variation of CD spectrum of RORγt
same,direct interaction by HPLC,RORγt-LBD [3],directly interacts with RORγt-LBD
same,direct interaction by HPLC,[4],not with retinoid X receptor α LBD
same,brain penetration,[5]; mouse models,ideal brain penetration
same,AUC(0-inf),[5]; [7],173 ng·h/mL
same,AUC(0-t),[5]; [7],170 ng·h/mL
same,Cmax,[5]; [7],121 ng/mL
same,Tmax,[5]; [7],30 min
same,AUC(0-inf),[5]; [8],3310 ng·h/mL
same,AUC(0-t),[5]; [8],3280 ng·h/mL
same,Cmax,[5]; [8],3250 ng/mL
same,Tmax,[5]; [8],30 min
same,half-life,[5]; [8],289 min
same,Concentration of T0901317 in mice brain samples,"RORγt; individual mice 1-5, TPT-treated, tracer T0901317, listed as TPT",2788.48 ng/g and 4396.96 ng/g and 3365.97 ng/g and 3736.16 ng/g and 3212.96 ng/g
same,"Concentration of T0901317 in mice brain samples, Mean","RORγt; mean of 5 TPT-treated mice, vehicle mean 4426.55, P-value 0.0029",3500.11 ng/g
same,EAE induced body weight loss,EAE mice; [9],more tolerable to EAE induced body weight loss than vehicle-treated mice
same,onset of clinical symptoms,EAE mice; [9],significantly delay in the onset of clinical symptoms
same,clinical score,"EAE mice; 10 mg/kg intraperitoneally every four days, five-point scoring",observable reduction of clinical score
same,IL-17 production in brain and spinal cords,EAE mice; ELISA,significantly reduces IL-17 production
same,demyelination in white matter (LFB staining),EAE mice; day 20 after immunization,demyelination is significantly reversed
same,infiltration of leukocytes in spinal cord (H&E staining),EAE mice; day 20 after immunization,infiltration is largely reduced
same,DBT near-infrared fluorescence (myelin imaging),EAE mice; near-infrared in vivo imaging,reverses fluorescence
same,accumulation of Cy5.5-BSA fluorescent probe in the brain (blood-brain barrier leakage),EAE mice; near-infrared in vivo imaging,higher accumulation of the fluorescent probe in the brain of vehicle treated mice as compared to the topotecan treatment group
same,toxicity on normal cell lines or other mice organs,[6],very low toxicity
C#C[C@]1(O)CC[C@H]2[C@@H]3CCC4=CC(=O)CC[C@@H]4[C@H]3CC[C@@]21C [norethindrone],inhibition at 10 µM,human RORγt; [10],> 30%
CCOC(=O)c1ccc(C#Cc2ccc3c(c2)C(C)(C)CCS3)nc1 [tazarotene],inhibition at 10 µM,human RORγt; [11],> 30%
CN(CCOc1ccc(CC2SC(=O)NC2=O)cc1)c1ccccn1 (stereo not drawn) [rosiglitazone],inhibition at 10 µM,human RORγt; [11],> 30%
CC(=O)S[C@@H]1CC2=CC(=O)CC[C@]2(C)[C@H]2CC[C@@]3(C)[C@@H](CC[C@@]34CCC(=O)O4)[C@H]12 [spironolactone],inhibition at 10 µM,human RORγt; [10],> 30%
CC(CCc1ccc(O)cc1)NCCc1ccc(O)c(O)c1 (stereo not drawn) [dobutamine],IC50,ADRA2A,10.8 µM
same,IC50,DRD2,8.22 µM
CC(C)(Oc1ccc(CCNC(=O)c2ccc(Cl)cc2)cc1)C(=O)O [bezafibrate],inhibition at 10 µM,human RORγt; [11],> 30%
